Experimental data: patent US20170233491A1 (Merrimack Pharmaceuticals, Inc., priority 2016, published 2017)
Counter-ions that a name gives are not always drawn.

Tests used:
[1] = test system: HRG mRNA expression in CFPAC-1 cells; experiment: HRG mRNA expression in CFPAC-1 cells after chemotherapy treatment; format: cell-based; conditions: FIG. 3
Method: HRG mRNA expression was quantified after 24 h treatment with 1 mM of gemcitabine or 0.1 mM of paclitaxel, and normalized to housekeeping gene expression. “Vehicle”=drug-free vehicle control; “Gem”=gemcitabine treated; “Pac”=paclitaxel treated.

[2] = test system: preclinical models of pancreatic cancer; experiment: preclinical models of pancreatic cancer, combination with nab-paclitaxel and gemcitabine; format: in vivo; conditions: KRAS mutant pancreatic cancer models
[3] = test system: IGF-1R and ErbB3 signaling; experiment: growth factor-induced (IGF-1, heregulin) signaling in pancreatic cancer models; format: cell-based; conditions: preclinical research
pancreatic cancer models = experiment: IGF-1- and HRG-mediated insensitivity to gemcitabine or paclitaxel; format: cell-based; conditions: preclinical research
[4] = test system: preclinical models of pancreatic cancer; conditions: combined with nab-paclitaxel and gemcitabine; cited from earlier work
[5] = Phase 1 study; cited from earlier work
[6] = test system: IGF-1R and ErbB3 signaling; conditions: background description; cited from earlier work
[7] = biological target: receptor complexes containing IGF-1R and ErbB3 (Homo sapiens, UniProt P08069+P21860); conditions: including heterodimers with insulin receptor and with ErbB2; cited from earlier work
Chain of receptor complexes containing IGF-1R and ErbB3 (P08069 31-736 limits assumed): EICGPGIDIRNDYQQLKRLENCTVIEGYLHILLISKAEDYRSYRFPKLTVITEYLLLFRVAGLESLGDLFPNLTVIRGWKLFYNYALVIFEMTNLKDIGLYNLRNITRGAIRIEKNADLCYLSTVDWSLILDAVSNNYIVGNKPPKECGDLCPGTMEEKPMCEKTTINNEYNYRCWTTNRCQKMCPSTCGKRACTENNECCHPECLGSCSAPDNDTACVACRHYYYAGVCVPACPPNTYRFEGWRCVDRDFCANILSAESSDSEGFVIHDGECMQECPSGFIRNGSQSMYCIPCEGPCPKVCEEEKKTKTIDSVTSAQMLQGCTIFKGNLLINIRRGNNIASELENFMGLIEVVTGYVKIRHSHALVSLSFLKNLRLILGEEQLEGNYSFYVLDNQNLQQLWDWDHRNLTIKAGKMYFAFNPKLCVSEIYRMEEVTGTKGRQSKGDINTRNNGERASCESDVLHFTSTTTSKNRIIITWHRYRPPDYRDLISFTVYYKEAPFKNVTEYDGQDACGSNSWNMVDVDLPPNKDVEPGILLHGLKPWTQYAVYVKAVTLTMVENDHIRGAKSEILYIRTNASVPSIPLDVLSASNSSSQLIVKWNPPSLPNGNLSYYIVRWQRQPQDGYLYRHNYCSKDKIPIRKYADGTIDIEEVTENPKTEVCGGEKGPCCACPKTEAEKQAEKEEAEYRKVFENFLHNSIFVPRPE
Chain of receptor complexes containing IGF-1R and ErbB3 (P08069 741-1367 limits assumed): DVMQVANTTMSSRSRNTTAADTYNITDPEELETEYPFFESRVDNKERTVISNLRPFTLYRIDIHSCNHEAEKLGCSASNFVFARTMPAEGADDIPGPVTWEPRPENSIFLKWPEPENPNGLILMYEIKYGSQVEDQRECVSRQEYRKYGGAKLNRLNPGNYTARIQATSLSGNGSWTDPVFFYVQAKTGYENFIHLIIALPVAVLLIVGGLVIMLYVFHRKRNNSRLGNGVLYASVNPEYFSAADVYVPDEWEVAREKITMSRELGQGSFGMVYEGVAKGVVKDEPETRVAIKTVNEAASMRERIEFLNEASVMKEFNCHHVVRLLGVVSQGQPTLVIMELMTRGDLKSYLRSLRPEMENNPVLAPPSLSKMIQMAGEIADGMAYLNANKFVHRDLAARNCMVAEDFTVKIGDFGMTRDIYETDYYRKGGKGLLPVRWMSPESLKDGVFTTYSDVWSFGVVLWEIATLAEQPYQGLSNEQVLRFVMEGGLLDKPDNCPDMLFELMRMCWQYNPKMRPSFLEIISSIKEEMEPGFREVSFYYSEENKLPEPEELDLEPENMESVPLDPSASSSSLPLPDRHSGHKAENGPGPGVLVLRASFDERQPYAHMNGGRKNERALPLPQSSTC
Chain of receptor complexes containing IGF-1R and ErbB3 (P21860 20-1342): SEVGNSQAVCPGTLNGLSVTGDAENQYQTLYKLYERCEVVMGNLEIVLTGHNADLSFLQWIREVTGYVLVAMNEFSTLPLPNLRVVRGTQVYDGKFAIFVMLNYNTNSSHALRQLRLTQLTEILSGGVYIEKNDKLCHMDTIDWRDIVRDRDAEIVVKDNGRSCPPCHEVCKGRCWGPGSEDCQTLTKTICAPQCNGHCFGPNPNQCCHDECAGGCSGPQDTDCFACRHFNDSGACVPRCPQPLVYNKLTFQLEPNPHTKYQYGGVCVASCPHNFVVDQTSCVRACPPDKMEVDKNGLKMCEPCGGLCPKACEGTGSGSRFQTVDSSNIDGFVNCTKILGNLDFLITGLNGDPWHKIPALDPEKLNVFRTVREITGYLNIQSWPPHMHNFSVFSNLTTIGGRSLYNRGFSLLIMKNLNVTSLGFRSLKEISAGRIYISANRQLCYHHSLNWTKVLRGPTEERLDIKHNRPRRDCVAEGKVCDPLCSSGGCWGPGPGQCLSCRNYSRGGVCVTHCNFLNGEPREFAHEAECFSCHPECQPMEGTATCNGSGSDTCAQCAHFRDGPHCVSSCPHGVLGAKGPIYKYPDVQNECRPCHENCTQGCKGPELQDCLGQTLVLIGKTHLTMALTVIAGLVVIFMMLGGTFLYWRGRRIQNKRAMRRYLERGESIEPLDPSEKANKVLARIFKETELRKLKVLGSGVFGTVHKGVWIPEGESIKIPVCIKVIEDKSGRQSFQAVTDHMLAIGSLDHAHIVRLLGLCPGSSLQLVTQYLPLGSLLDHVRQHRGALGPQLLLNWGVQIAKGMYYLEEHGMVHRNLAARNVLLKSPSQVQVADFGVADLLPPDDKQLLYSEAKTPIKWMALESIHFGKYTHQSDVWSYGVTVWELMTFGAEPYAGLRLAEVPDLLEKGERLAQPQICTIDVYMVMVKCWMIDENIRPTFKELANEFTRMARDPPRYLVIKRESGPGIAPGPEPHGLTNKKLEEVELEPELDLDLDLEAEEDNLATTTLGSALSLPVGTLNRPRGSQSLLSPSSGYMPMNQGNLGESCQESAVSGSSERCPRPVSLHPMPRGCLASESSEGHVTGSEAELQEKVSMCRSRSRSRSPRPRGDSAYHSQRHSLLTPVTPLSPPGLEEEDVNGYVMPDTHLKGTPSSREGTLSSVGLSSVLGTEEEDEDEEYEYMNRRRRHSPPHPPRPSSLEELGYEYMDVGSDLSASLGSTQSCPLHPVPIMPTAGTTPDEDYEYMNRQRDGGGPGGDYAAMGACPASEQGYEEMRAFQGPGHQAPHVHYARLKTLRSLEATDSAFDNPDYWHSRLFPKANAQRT

Nc1ccn([C@@H]2O[C@H](CO)[C@@H](O)C2(F)F)c(=O)n1 [gemcitabine, 2′-deoxy-2′,2′-difluorocytidine monohydrochloride (-isomer)]
HRG mRNA expression, normalized to housekeeping gene expression ([1]; 24 h treatment with 1 mM of gemcitabine): increases HRG mRNA expression

CC(=O)O[C@H]1C(=O)[C@@]2(C)[C@H]([C@H](OC(=O)c3ccccc3)[C@]3(O)C[C@H](OC(=O)[C@H](O)[C@@H](NC(=O)c4ccccc4)c4ccccc4)C(C)=C1C3(C)C)[C@]1(OC(C)=O)CO[C@@H]1C[C@@H]2O [paclitaxel]
HRG mRNA expression, normalized to housekeeping gene expression ([1]; 24 h treatment with 0.1 mM of paclitaxel): increases HRG mRNA expression

Istiratumab: recombinant fully human bispecific tetravalent antibody directed at IGF-1R and ErbB3; light chain SEQ ID NO: 1, heavy chain SEQ ID NO: 2
potentiation of anti-tumor activity of nab-paclitaxel/gemcitabine [2]: potentiates the anti-tumor activity of nab-paclitaxel/gemcitabine | growth factor-induced survival signaling [3]: inhibits growth factor-induced survival signaling | reversal of IGF-1- and HRG-mediated insensitivity to gemcitabine or paclitaxel (pancreatic cancer models): reverses IGF-1- and HRG-mediated insensitivity to gemcitabine or paclitaxel | tumor regression [4]: significant tumor regression, including durable complete responses | safety and tolerability [5]: safe and tolerable | IGF-1 and heregulin-induced signaling [6]: co-blocks IGF-1 and heregulin-induced signaling | degradation of receptor complexes containing IGF-1R and ErbB3 [7]: induces degradation of receptor complexes containing IGF-1R and ErbB3
